Numbers after ± are expanded uncertainties.
Assay: xn = mol fraction of the nth substance listed
Details: Gas, Burnett expansion method

C=C(F)C(F)(F)F [2,3,3,3-tetrafluoro-1-propene] + FCF
Details	mass density [kg/m3]
353.42 K, 2273.3 kPa, x2 = 0.259	105.33 ± 1.3
353.43 K, 588.71 kPa, x2 = 0.874	12.5 ± 0.15
353.43 K, 1253 kPa, x2 = 0.874	28.21 ± 0.32
353.47 K, 861.21 kPa, x2 = 0.874	18.78 ± 0.22
358.31 K, 1928.5 kPa, x2 = 0.698	54.05 ± 0.5
358.32 K, 1240.6 kPa, x2 = 0.449	40.46 ± 0.36
358.33 K, 586.28 kPa, x2 = 0.449	17.94 ± 0.16
358.33 K, 2665 kPa, x2 = 0.698	81.18 ± 0.81
358.34 K, 639.13 kPa, x2 = 0.698	15.95 ± 0.15
358.34 K, 1357.4 kPa, x2 = 0.698	35.99 ± 0.32
358.34 K, 1994 kPa, x2 = 0.119	94.76 ± 0.63
358.34 K, 2418.3 kPa, x2 = 0.449	91.37 ± 0.99
358.34 K, 3167.9 kPa, x2 = 0.449	137.24 ± 1.5
358.34 K, 3474 kPa, x2 = 0.874	95.77 ± 1.1
358.35 K, 591.83 kPa, x2 = 0.259	20.68 ± 0.16
358.35 K, 858.88 kPa, x2 = 0.449	26.94 ± 0.24
358.35 K, 937.43 kPa, x2 = 0.698	23.96 ± 0.21
358.35 K, 1463 kPa, x2 = 0.119	63.06 ± 0.38
358.35 K, 1759.6 kPa, x2 = 0.449	60.82 ± 0.58
358.35 K, 2335.1 kPa, x2 = 0.259	105.31 ± 1.2
358.35 K, 2564.1 kPa, x2 = 0.874	63.62 ± 0.73
358.35 K, 3529.2 kPa, x2 = 0.698	121.89 ± 1.7
358.36 K, 1237.2 kPa, x2 = 0.259	46.66 ± 0.35
358.36 K, 1730.8 kPa, x2 = 0.259	70.06 ± 0.65
358.36 K, 1828.8 kPa, x2 = 0.874	42.36 ± 0.49
358.36 K, 2579.2 kPa, x2 = 0.119	142.43 ± 1.6
358.36 K, 2999.2 kPa, x2 = 0.259	158.78 ± 2.6
358.36 K, 4405.8 kPa, x2 = 0.698	183.14 ± 2.5
358.36 K, 4479.7 kPa, x2 = 0.874	144.13 ± 2.4
358.37 K, 719.85 kPa, x2 = 0.119	27.94 ± 0.15
358.37 K, 862.94 kPa, x2 = 0.259	31.07 ± 0.22
358.37 K, 1037.7 kPa, x2 = 0.119	41.96 ± 0.24
358.38 K, 1274.6 kPa, x2 = 0.874	28.2 ± 0.32
358.38 K, 3076.3 kPa, x2 = 0.119	213.92 ± 3.2
358.39 K, 597.87 kPa, x2 = 0.874	12.5 ± 0.15
358.41 K, 875.21 kPa, x2 = 0.874	18.78 ± 0.22
363.26 K, 1966.8 kPa, x2 = 0.698	54.03 ± 0.5
363.26 K, 2727.3 kPa, x2 = 0.698	81.16 ± 0.8
363.27 K, 1262.7 kPa, x2 = 0.449	40.45 ± 0.36
363.28 K, 595.28 kPa, x2 = 0.449	17.93 ± 0.16
363.28 K, 648.9 kPa, x2 = 0.698	15.95 ± 0.15
363.28 K, 2476.7 kPa, x2 = 0.449	91.33 ± 0.97
363.28 K, 3265.9 kPa, x2 = 0.449	137.17 ± 1.6
363.28 K, 3632.6 kPa, x2 = 0.698	121.86 ± 1.6
363.28 K, 4041.7 kPa, x2 = 0.449	205.81 ± 3.2
363.29 K, 1381.4 kPa, x2 = 0.698	35.97 ± 0.32
363.29 K, 1795.1 kPa, x2 = 0.449	60.79 ± 0.58
363.29 K, 1863 kPa, x2 = 0.874	42.34 ± 0.49
363.29 K, 2043.8 kPa, x2 = 0.119	94.71 ± 0.62
363.29 K, 2396.3 kPa, x2 = 0.259	105.29 ± 1.3
363.29 K, 3100.7 kPa, x2 = 0.259	158.62 ± 2.5
363.29 K, 3726.8 kPa, x2 = 0.259	238.72 ± 2.7
363.29 K, 4575.5 kPa, x2 = 0.698	183.09 ± 2.5
363.3 K, 601.42 kPa, x2 = 0.259	20.68 ± 0.16
363.3 K, 872.75 kPa, x2 = 0.449	26.93 ± 0.23
363.3 K, 1296.1 kPa, x2 = 0.874	28.19 ± 0.32
363.3 K, 1768.3 kPa, x2 = 0.259	70.06 ± 0.64
363.3 K, 2619.4 kPa, x2 = 0.874	63.6 ± 0.72
363.3 K, 2663.3 kPa, x2 = 0.119	142.34 ± 1.5
363.3 K, 3565.6 kPa, x2 = 0.874	95.7 ± 1.1
363.3 K, 4630.5 kPa, x2 = 0.874	143.96 ± 2.4
363.31 K, 731.75 kPa, x2 = 0.119	27.93 ± 0.15
363.31 K, 952.86 kPa, x2 = 0.698	23.95 ± 0.21
363.31 K, 1056.3 kPa, x2 = 0.119	41.95 ± 0.24
363.31 K, 1260.4 kPa, x2 = 0.259	46.66 ± 0.35
363.31 K, 3222.3 kPa, x2 = 0.119	213.79 ± 2.9
363.32 K, 877.52 kPa, x2 = 0.259	31.06 ± 0.22
363.32 K, 1493.6 kPa, x2 = 0.119	63.03 ± 0.37
363.33 K, 606.82 kPa, x2 = 0.874	12.5 ± 0.15
363.33 K, 888.85 kPa, x2 = 0.874	18.77 ± 0.21
368.2 K, 2004.8 kPa, x2 = 0.698	54.02 ± 0.5
368.22 K, 604.3 kPa, x2 = 0.449	17.93 ± 0.16
368.22 K, 658.7 kPa, x2 = 0.698	15.94 ± 0.14
368.22 K, 1285 kPa, x2 = 0.449	40.44 ± 0.36
368.22 K, 2534.6 kPa, x2 = 0.449	91.28 ± 0.96
368.22 K, 2789.6 kPa, x2 = 0.698	81.13 ± 0.79
368.22 K, 3362.6 kPa, x2 = 0.449	137.11 ± 1.6
368.22 K, 4205.2 kPa, x2 = 0.449	205.77 ± 7.4
368.23 K, 967.59 kPa, x2 = 0.698	23.94 ± 0.21
368.23 K, 1830.4 kPa, x2 = 0.449	60.77 ± 0.57
368.23 K, 3201.4 kPa, x2 = 0.259	158.47 ± 2.4
368.23 K, 3655.1 kPa, x2 = 0.874	95.63 ± 1.1
368.23 K, 3734.8 kPa, x2 = 0.698	121.83 ± 1.6
368.23 K, 3898.2 kPa, x2 = 0.259	238.37 ± 3.1
368.23 K, 4743.3 kPa, x2 = 0.698	183.03 ± 2.4
368.24 K, 610.69 kPa, x2 = 0.259	20.68 ± 0.16
368.24 K, 1317.5 kPa, x2 = 0.874	28.18 ± 0.32
368.24 K, 1405.2 kPa, x2 = 0.698	35.96 ± 0.32
368.24 K, 1523.3 kPa, x2 = 0.119	63.01 ± 0.37
368.24 K, 1805.3 kPa, x2 = 0.259	70.05 ± 0.63
368.24 K, 1897.2 kPa, x2 = 0.874	42.33 ± 0.49
368.24 K, 2093.2 kPa, x2 = 0.119	94.66 ± 0.61
368.24 K, 2457.3 kPa, x2 = 0.259	105.26 ± 1.2
368.24 K, 2674.2 kPa, x2 = 0.874	63.58 ± 0.72
368.24 K, 4778.9 kPa, x2 = 0.874	143.8 ± 2.3
368.25 K, 743.56 kPa, x2 = 0.119	27.92 ± 0.15
368.25 K, 886.98 kPa, x2 = 0.449	26.92 ± 0.23
368.25 K, 1075 kPa, x2 = 0.119	41.94 ± 0.24
368.25 K, 1283.3 kPa, x2 = 0.259	46.65 ± 0.34
368.25 K, 2746.3 kPa, x2 = 0.119	142.24 ± 1.4
368.25 K, 4383.2 kPa, x2 = 0.259	361.18 ± 5.9
368.26 K, 891.98 kPa, x2 = 0.259	31.06 ± 0.22
368.26 K, 3365.6 kPa, x2 = 0.119	213.65 ± 3.7
368.27 K, 3774.3 kPa, x2 = 0.119	320.57 ± 8.2
368.28 K, 615.74 kPa, x2 = 0.874	12.49 ± 0.15
368.29 K, 902.66 kPa, x2 = 0.874	18.76 ± 0.21
373.13 K, 2042.5 kPa, x2 = 0.698	54 ± 0.5
373.14 K, 613.24 kPa, x2 = 0.449	17.92 ± 0.16
373.15 K, 668.24 kPa, x2 = 0.698	15.94 ± 0.14
373.15 K, 1428.2 kPa, x2 = 0.698	35.95 ± 0.32
373.15 K, 2592.1 kPa, x2 = 0.449	91.24 ± 0.94
373.15 K, 4365.9 kPa, x2 = 0.449	205.72 ± 6.9
373.15 K, 4909.8 kPa, x2 = 0.698	182.98 ± 2.3
373.16 K, 982.7 kPa, x2 = 0.698	23.94 ± 0.21
373.16 K, 2850.9 kPa, x2 = 0.698	81.11 ± 0.79
373.16 K, 3458.2 kPa, x2 = 0.449	137.04 ± 1.5
373.16 K, 3835.9 kPa, x2 = 0.698	121.81 ± 1.6
373.17 K, 1307 kPa, x2 = 0.449	40.43 ± 0.36
373.17 K, 1552.9 kPa, x2 = 0.119	62.98 ± 0.37
373.17 K, 1842 kPa, x2 = 0.259	70.05 ± 0.62
373.17 K, 2141.9 kPa, x2 = 0.119	94.62 ± 0.6
373.17 K, 3744.3 kPa, x2 = 0.874	95.56 ± 1.1

From the NIST ThermoML archive (doi:10.1016/j.jct.2019.02.028)
